System: CN0375-F725-PDC KRAS spheroid viability
Assay: Anticancer human tumor CN0375-F725-PDC patient-derived colon carcinoma cell line growth inhibition [KRAS2]
Conditions: spheroids with HUVEC and MSC; for viability, T/C: stronger effect = lower value
In short: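 Combination screen of spheroid viability in tumor-cell co-cultures with endothelial (HUVEC) and mesenchymal stem cell stroma. Each agent was tested in half-log dilutions, topping at clinical Cmax or at 10 microM without a known Cmax.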

[1] = curve of first compound, second compound 0.0316 µM
[2] = curve of first compound, second compound 0.1 µM
[3] = curve of first compound, second compound 0.316 µM
[4] = curve of first compound, second compound 1 µM
[5] = curve of first compound, second compound 3.16 µM
[6] = second compound 0.0316 µM, first compound 0.0316 µM
[7] = second compound 0.0316 µM, first compound 0.1 µM
[8] = second compound 0.0316 µM, first compound 0.316 µM
[9] = second compound 0.0316 µM, first compound 1 µM
[10] = second compound 0.0316 µM, first compound 3.16 µM
[11] = second compound 0.0316 µM, first compound 10 µM
[12] = second compound 0.1 µM, first compound 0.0316 µM
[13] = second compound 0.1 µM, first compound 0.1 µM
[14] = second compound 0.1 µM, first compound 0.316 µM
[15] = second compound 0.1 µM, first compound 1 µM
[16] = second compound 0.1 µM, first compound 3.16 µM
[17] = second compound 0.1 µM, first compound 10 µM
[18] = second compound 0.316 µM, first compound 0.0316 µM
[19] = second compound 0.316 µM, first compound 0.1 µM
[20] = second compound 0.316 µM, first compound 0.316 µM
[21] = second compound 0.316 µM, first compound 1 µM
[22] = second compound 0.316 µM, first compound 3.16 µM
[23] = second compound 0.316 µM, first compound 10 µM
[24] = second compound 1 µM, first compound 0.0316 µM
[25] = second compound 1 µM, first compound 0.1 µM
[26] = second compound 1 µM, first compound 0.316 µM
[27] = second compound 1 µM, first compound 1 µM
[28] = second compound 1 µM, first compound 3.16 µM
[29] = second compound 1 µM, first compound 10 µM
[30] = second compound 3.16 µM, first compound 0.0316 µM
[31] = second compound 3.16 µM, first compound 0.1 µM
[32] = second compound 3.16 µM, first compound 0.316 µM
[33] = second compound 3.16 µM, first compound 1 µM
[34] = second compound 3.16 µM, first compound 3.16 µM
[35] = second compound 3.16 µM, first compound 10 µM
[36] = curve of first compound, second compound 10 µM
[37] = second compound 10 µM, first compound 0.0316 µM
[38] = second compound 10 µM, first compound 0.1 µM
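Note: spheroids exposed to agents for 7 days.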

CC1OCC2(CCN(c3cnc(Sc4ccnc(N)c4Cl)c(N)n3)CC2)C1N (configuration not stated) + C=CC(=O)N1CCN(c2nc(OCC3CCCN3C)nc3c2CCN(c2cccc4cccc(C)c24)C3)CC1CC#N
IC50 [1]: > 10000 nM | IC50 [2]: > 10000 nM | IC50 [3]: > 10000 nM | IC50 [4]: 8240 nM | IC50 [5]: < 31.6 nM | viability, T/C [6]: 99.2% | viability, T/C [7]: 90.6% | viability, T/C [8]: 77.1% | viability, T/C [9]: 81.9% | viability, T/C [10]: 79.7% | viability, T/C [11]: 63.7% | viability, T/C [12]: 102% | viability, T/C [13]: 90.9% | viability, T/C [14]: 77.7% | viability, T/C [15]: 80% | viability, T/C [16]: 74.4% | viability, T/C [17]: 62.9% | viability, T/C [18]: 102% | viability, T/C [19]: 89.9% | viability, T/C [20]: 81.8% | viability, T/C [21]: 78.3% | viability, T/C [22]: 71.4% | viability, T/C [23]: 60.4% | viability, T/C [24]: 83.2% | viability, T/C [25]: 86% | viability, T/C [26]: 73.5% | viability, T/C [27]: 61.8% | viability, T/C [28]: 64.2% | viability, T/C [29]: 46.5% | viability, T/C [30]: 30.2% | viability, T/C [31]: 18.2% | viability, T/C [32]: 14.2% | viability, T/C [33]: 13% | viability, T/C [34]: 13.2% | viability, T/C [35]: 9.43%

CN(C)C/C=C/C(=O)Nc1cc2c(Nc3ccc(F)c(Cl)c3)ncnc2cc1O[C@H]1CCOC1 + CC1OCC2(CCN(c3cnc(Sc4ccnc(N)c4Cl)c(N)n3)CC2)C1N
IC50 [2]: > 100 nM | IC50 [3]: > 100 nM | IC50 [4]: > 100 nM | IC50 [5]: > 100 nM | IC50 [36]: > 100 nM | viability, T/C (second compound 0.1 µM, first compound 0.000316 µM): 95.9% | viability, T/C (second compound 0.1 µM, first compound 0.001 µM): 87% | viability, T/C (second compound 0.1 µM, first compound 0.00316 µM): 87.5% | viability, T/C (second compound 0.1 µM, first compound 0.01 µM): 85.9% | viability, T/C [12]: 80.4% | viability, T/C [13]: 80.4% | viability, T/C (second compound 0.316 µM, first compound 0.000316 µM): 93.6% | viability, T/C (second compound 0.316 µM, first compound 0.001 µM): 87.7% | viability, T/C (second compound 0.316 µM, first compound 0.00316 µM): 84% | viability, T/C (second compound 0.316 µM, first compound 0.01 µM): 86.9% | viability, T/C [18]: 83.2% | viability, T/C [19]: 75.7% | viability, T/C (second compound 1 µM, first compound 0.000316 µM): 94.8% | viability, T/C (second compound 1 µM, first compound 0.001 µM): 97.5% | viability, T/C (second compound 1 µM, first compound 0.00316 µM): 88.3% | viability, T/C (second compound 1 µM, first compound 0.01 µM): 85.5% | viability, T/C [24]: 83.5% | viability, T/C [25]: 77.7% | viability, T/C (second compound 3.16 µM, first compound 0.000316 µM): 73.9% | viability, T/C (second compound 3.16 µM, first compound 0.001 µM): 77.7% | viability, T/C (second compound 3.16 µM, first compound 0.00316 µM): 73.7% | viability, T/C (second compound 3.16 µM, first compound 0.01 µM): 71% | viability, T/C [30]: 71.6% | viability, T/C [31]: 72.3% | viability, T/C (second compound 10 µM, first compound 0.000316 µM): 90.3% | viability, T/C (second compound 10 µM, first compound 0.001 µM): 96% | viability, T/C (second compound 10 µM, first compound 0.00316 µM): 88% | viability, T/C (second compound 10 µM, first compound 0.01 µM): 84.6% | viability, T/C [37]: 80.6% | viability, T/C [38]: 82.8%

Cn1nccc1Nc1nccc(-c2cc3c(s2)C(C)(C)N(CCN2CCOCC2)C3=O)n1
viability, T/C (compound 0.0316 µM): 104% [middle of 5 runs] | viability, T/C (compound 0.1 µM): 90% [middle of 5 runs] | viability, T/C (compound 0.316 µM): 77.5% [middle of 5 runs] | viability, T/C (compound 1 µM): 72.3% [middle of 5 runs] | viability, T/C (compound 3.16 µM): 56.5% [middle of 5 runs] | viability, T/C (compound 10 µM): 44.6% [middle of 5 runs] | IC50 (curve of compound): 5.56 µM [middle of 5 runs]

Cn1nccc1Nc1nccc(-c2cc3c(s2)C(C)(C)N(CCN2CCOCC2)C3=O)n1 + CNCc1ccccc1-c1csc(C(C)Nc2nc(C)nc3cc(OC)c(OC)cc23)c1
IC50 [2]: 2790 nM | IC50 [3]: 1180 nM | IC50 [4]: 77.7 nM | IC50 [5]: < 31.6 nM | IC50 [36]: < 31.6 nM | viability, T/C [12]: 98% | viability, T/C [13]: 85.6% | viability, T/C [14]: 71.1% | viability, T/C [15]: 61.9% | viability, T/C [16]: 48.8% | viability, T/C [17]: 37.2% | viability, T/C [18]: 86.5% | viability, T/C [19]: 80.8% | viability, T/C [20]: 64.7% | viability, T/C [21]: 53% | viability, T/C [22]: 39.4% | viability, T/C [23]: 33.2% | viability, T/C [24]: 57.4% | viability, T/C [25]: 53% | viability, T/C [26]: 25.3% | viability, T/C [27]: 25.9% | viability, T/C [28]: 7.98% | viability, T/C [29]: 3.51% | viability, T/C [30]: 0.61% | viability, T/C [31]: 0.29% | viability, T/C [32]: 0.39% | viability, T/C [33]: 0.2% | viability, T/C [34]: 0.2% | viability, T/C [35]: 0.21% | viability, T/C [37]: 0.28% | viability, T/C [38]: 0.25% | viability, T/C (second compound 10 µM, first compound 0.316 µM): 0.17% | viability, T/C (second compound 10 µM, first compound 1 µM): 0.26% | viability, T/C (second compound 10 µM, first compound 3.16 µM): 1.05% | viability, T/C (second compound 10 µM, first compound 10 µM): 0.49%

O=C(c1cc(Cc2n[nH]c(=O)c3ccccc23)ccc1F)N1CCN(C(=O)C2CC2)CC1 + C=CC(=O)N1CCN(c2nc(OCC3CCCN3C)nc3c2CCN(c2cccc4cccc(C)c24)C3)CC1CC#N
IC50 [1]: > 10000 nM | IC50 [2]: > 10000 nM | IC50 [3]: > 10000 nM | IC50 [4]: > 10000 nM | IC50 [5]: < 31.6 nM | viability, T/C [6]: 104% | viability, T/C [7]: 104% | viability, T/C [8]: 99% | viability, T/C [9]: 102% | viability, T/C [10]: 99.4% | viability, T/C [11]: 94.7% | viability, T/C [12]: 108% | viability, T/C [13]: 107% | viability, T/C [14]: 101% | viability, T/C [15]: 98.8% | viability, T/C [16]: 104% | viability, T/C [17]: 99.3% | viability, T/C [18]: 101% | viability, T/C [19]: 107% | viability, T/C [20]: 97.5% | viability, T/C [21]: 99.6% | viability, T/C [22]: 101% | viability, T/C [23]: 92.5% | viability, T/C [24]: 100% | viability, T/C [25]: 102% | viability, T/C [26]: 97.9% | viability, T/C [27]: 90.6% | viability, T/C [28]: 103% | viability, T/C [29]: 89% | viability, T/C [30]: 34.1% | viability, T/C [31]: 29% | viability, T/C [32]: 21.5% | viability, T/C [33]: 22.7% | viability, T/C [34]: 28.9% | viability, T/C [35]: 8.54%

Reference: PubChem BioAssay AID1963860 (Molecular Pharmacology Branch, DTP, NCI, 2024)
